Experimental data taken from patent US7595401B2, “Therapeutic compounds and their use in cancer” (Myriad Pharmaceuticals, Inc., priority 2006, dated 2009).

System: purified human Hsp90
Assay: Binding Assay: fluorescence polarization with BODIPY-labeled geldanamycin
Conditions: 5 μM compound, BODIPY-GM 10 nM, Hsp90 30 nM
Summary of the method: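 Compounds in 2% DMSO final compete with 10 nM BODIPY-GM for 30 nM purified human Hsp90, incubated overnight at room temperature in pH 7.3 HEPES buffer containing Na2MoO4 and DTT. Polarization (mP, ex/em 485/530) normalized to DMSO gives percent inhibition; autofluorescence-confounded data excluded.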

SMILES	% Inhibition at 5 μM Compound Concentration
Nc1ncn(CCc2c(F)cccc2Cl)c2nc(Sc3cc4c(cc3Br)OCO4)nc1-2 [Example 131, 8-(6-bromo-benzo[1,3]dioxol-5-ylsulfanyl)-3-[2-(2-chloro-6-fluoro-phenyl)-ethyl]-3H-purin-6-ylamine]	18%
N#Cc1ccc(Sc2nc3c(N)ncn(CCc4ccccc4)c-3n2)cc1 [Example 20, 4-(6-amino-3-phenethyl-3H-purin-8-ylsulfanyl)-benzonitrile]	0%
Nc1ncn(CCC2CCN(C(=O)C3(C(F)(F)F)CC3)CC2)c2nc(Sc3cc4c(cc3Br)OCO4)nc1-2 [Example 527]	19.00%
COC(=O)c1ccnc(Sc2nc3c(N)ncn(CCC4CCN(C=O)CC4)c-3n2)c1 [Example 543, Methyl 2-({6-amino-3-[2-(1-formylpiperidin-4-yl)ethyl]-3 H-purin-8-yl}thio)isonicotinate]	0.00%
Nc1ncn(CCC2CCCN(S(=O)(=O)C(F)(F)F)C2)c2nc(Sc3cc4c(cc3Br)OCO4)nc1-2 (stereo not drawn) [Example 403, 8-[(6-Bromo-1,3-benzodioxol-5-yl)thio]-3-(2-{1-[(trifluoromethyl)sulfonyl]piperidin-3-yl}ethyl)-3H-purin-6-amine]	14%
CN1C2CCC1CC(CCn1cnc(N)c3nc(Sc4cc5c(cc4Br)OCO5)nc1-3)C2 (stereo not drawn) [Example 427, 8-[(6-Bromo-1,3-benzodioxol-5-yl)thio]-3-{2-[(3-endo)-8-methyl-8-azabicyclo[3.2.1]oct-3-yl]ethyl}-3H-purin-6-amine]	32%
CC(C)(C)OC(=O)N1CCC(CCn2cnc(N)c3nc(Sc4cc5c(cc4Br)OCO5)nc2-3)C1 (stereo not drawn) [Example 413, tert-Butyl 3-(2-{6-amino-8-[(6-bromo-1,3-benzodioxol-5-yl)thio]-3H-purin-3-yl}ethyl)pyrrolidine-1-carboxylate]	28%
COc1ccc(I)c(Sc2nc3c(N)ncn(CCc4ccc(I)cc4)c-3n2)c1 [Example 311, 8-[(2-Iodo-5-methoxyphenyl)thio]-3-[2-(4-iodophenyl)ethyl]-3H-purin-6-amine]	0.0%
CC(=O)c1ccc(CCn2cnc(N)c3nc(Sc4cc5c(cc4Br)OCO5)nc2-3)cc1 [Example 160, 1-(4-{2-[6-amino-8-(6-bromo-benzo[1,3]dioxol-5-ylsulfanyl)-purin-3-yl]-ethyl}-phenyl)-ethanone]	0%
COc1ccc(C)cc1Sc1nc2c(N)ncn(CCc3ccccc3)c-2n1 [Example 315, 8-[(2-Methoxy-5-methylphenyl)thio]-3-(2-phenylethyl)-3H-purin-6-amine]	21.0%
Nc1ncn(CCC2CCN(C(=O)C3CC3(F)F)CC2)c2nc(Sc3cc4c(cc3Br)OCO4)nc1-2 (stereo not drawn) [Example 525, 8-[(6-Bromo-1,3-benzodioxol-5-yl)thio]-3-(2-{1-[(2,2-difluorocyclopropyl)carbonyl]piperidin-4-yl}ethyl)-3 H-purin-6-amine]	13.00%
COc1ccc(OC)c(Sc2nc3c(N)ncn(CCn4ccnc4)c-3n2)c1 [Example 336, 8-[(2,5-Dimethoxyphenyl)thio]-3-[2-(1H-imidazol-1-yl)ethyl]-3H-purin-6-amine]	13.0%
COc1cccc(Sc2nc3c(N)ncn(CC(=O)c4ccccc4)c-3n2)c1 [Example 299, 2-{6-Amino-8-[(3-methoxyphenyl)thio]-3H-purin-3-yl}-1-phenylethanone]	0.0%
Nc1ncn(CCn2ccnc2)c2nc(Sc3cc4c(cc3Br)OCO4)nc1-2 [Example 380, 8-[(6-Bromo-1,3-benzodioxol-5-yl)thio]-3-[2-(1H-imidazol-1-yl)ethyl]-3H-purin-6-amine]	4%
CC(C)(C)OC(=O)NC(CCn1cnc(N)c2nc(Sc3cc4c(cc3Br)OCO4)nc1-2)C1CC1 (stereo not drawn) [Example 663, tert-butyl (3-{6-amino-8-[(6-bromo-1,3-benzodioxol-5-yl)thio]-3H-purin-3-yl}-1-cyclopropylpropyl)carbamate]	15%
CC(C)N1CCC(CCn2c(Sc3cc4c(cc3Br)OCO4)nc3ncnc(N)c32)CC1 [Example 583, 8-[(6-Bromo-1,3-benzodioxol-5-yl)thio]-7-[2-(1-isopropylpiperidin-4-yl)ethyl]-7 H-purin-6-amine]	55.00%
COc1ccc(OC)c(Sc2nc3c(N)ncnc3n2CCc2ccccc2C(F)(F)F)c1 [Example 183, 8-(2,5-Dimethoxy-phenylsulfanyl)-9-[2-(2-trifluoromethyl-phenyl)-ethyl]-9H-purin-6-ylamine]	100%
Nc1ncn(CCc2ccccc2[N+](=O)[O-])c2nc(Sc3cc4c(cc3Br)OCO4)nc1-2 [Example 208, 8-(6-bromo-benzo[1,3]dioxol-5-ylsulfanyl)-3-[2-(2-nitro-phenyl)-ethyl]-3H-purin-6-ylamine]	46%

Same assay, conditions: BODIPY-GM 10 nM, Hsp90 30 nM

SMILES	IC50
COc1ccc(OC)c(Sc2nc3c(N)ncnc3n2CCc2ccccc2OC)c1 [Example 85, 8-(2,5-Dimethoxy-phenylsulfanyl)-9-[2-(2-methoxy-phenyl)-ethyl]-9H-purin-6-ylamine]	360 nM
N#Cc1ccc(Sc2nc3c(N)ncn(CCc4ccccc4)c-3n2)cc1 [Example 20, 4-(6-amino-3-phenethyl-3H-purin-8-ylsulfanyl)-benzonitrile]	> 10000 nM
Nc1ncnc2c1nc(Sc1cc3c(cc1Br)OCO3)n2CCc1cccnc1 [Example 151, 8-(6-Bromo-benzo[1,3]dioxol-5-ylsulfanyl)-9-(2-pyridin-3-yl-ethyl)-9H-purin-6-ylamine]	50 nM
CC(C)[C@H]1C[C@H](CCn2c(Sc3cc4c(cc3Br)OCO4)nc3c(N)ncnc32)CCN1C(=O)OC(C)(C)C (relative stereo) [Example 428, tert-Butyl trans-4-(2-{6-amino-8-[(6-bromo-1,3-benzodioxol-5-yl)thio]-9H-purin-9-yl}ethyl)-2-isopropylpiperidine-1-carboxylate]	> 8000 nM
COc1ccc(F)cc1Sc1nc2c(N)ncnc2n1CCc1ccccc1Cl [Example 316, 9-[2-(2-Chlorophenyl)ethyl]-8-[(5-fluoro-2-methoxyphenyl)thio]-9H-purin-6-amine]	18000 nM
Cc1cc(=O)oc2cc(Sc3nc4c(N)ncnc4n3CCC3CCN(C=O)CC3)ccc12 [Example 532, 4-(2-{6-Amino-8-[(4-methyl-2-oxo-2 H-chromen-7-yl)thio]-9 H-purin-9-yl}ethyl)piperidine-1-carbaldehyde]	5000 nM
COc1ccc(OC)c(Sc2nc3c(N)ncnc3n2CCc2ccc([N+](=O)[O-])cc2)c1 [Example 8, 8-(2,5-Dimethoxy-phenylsulfanyl)-9-[2-(4-nitro-phenyl)-ethyl]-9H-purin-6-ylamine]	18000 nM
C[C@H](N)C(=O)N1CCC(CCn2c(Sc3nc4cccc(Cl)c4s3)nc3c(N)ncnc32)CC1 [Example 774, 9-(2-{1-[(2S)-2-Aminopropanoyl]piperidin-4-yl}ethyl)-8-[(7-chloro-1,3-benzothiazol-2-yl)thio]-9H-purin-6-amine]	200 nM
CC(C)(C)OC(=O)NC1(C(=O)N2CCC(CCn3c(Sc4cc5c(cc4Br)OCO5)nc4c(N)ncnc43)CC2)CC1 [Example 709, tert-Butyl(1-{[4-(2-{6-amino-8-[(6-bromo-1,3-benzodioxol-5-yl)thio]-9H-purin-9-yl}ethyl)piperidin-1-yl]carbonyl}cyclopropyl)carbamate]	230 nM
CC1(C)CNCCC1CCn1c(Sc2cc3c(cc2Br)OCO3)nc2c(N)ncnc21 (stereo not drawn) [Example 472, 8-[(6-Bromo-1,3-benzodioxol-5-yl)thio]-9-[2-(3,3-dimethylpiperidin-4-yl)ethyl]-9 H-purin-6-amine]	70 nM
CC(C)[C@H](N)C(=O)N1CCCC(CCn2c(Sc3cc4c(cc3Br)OCO4)nc3c(N)ncnc32)C1 (stereo partly drawn) [Example 745, 9-(2-{1-[(2S)-2-Amino-3-methylbutanoyl]piperidin-3-yl}ethyl)-8-[(6-bromo-1,3-benzodioxol-5-yl)thio]-9H-purin-6-amine]	123 nM
COc1ccc(OC)c(Sc2nc3c(N)ncnc3n2CCc2ccc(F)cc2)c1 [Example 9, 8-(2,5-Dimethoxy-phenylsulfanyl)-9-[2-(4-fluoro-phenyl)-ethyl]-9H-purin-6-ylamine]	1000 nM
COc1ccc(OC)c(Sc2nc3c(N)ncnc3n2CCC2CCCNC2)c1 (stereo not drawn) [Example 470, 8-[(2,5-Dimethoxyphenyl)thio]-9-(2-piperidin-3-ylethyl)-9 H-purin-6-amine]	280 nM
Nc1ncnc2c1nc(Sc1cc3c(cc1Br)OCO3)n2CCC1CCN(C(=O)C2CC2)CC1 [Example 514, 8-[(6-Bromo-1,3-benzodioxol-5-yl)thio]-9-{2-[1-(cyclopropylcarbonyl)piperidin-4-yl]ethyl}-9 H-purin-6-amine]	110 nM
CC(=O)N1CCC(CCn2c(Sc3nc4ccc([N+](=O)[O-])cc4s3)nc3c(N)ncnc32)CC1 [Example 651, 9-[2-(1-Acetylpiperidin-4-yl)ethyl]-8-[(6-nitro-1,3-benzothiazol-2-yl)thio]-9H-purin-6-amine]	> 5000 nM
COc1ccc(OC)c(Sc2nc3c(N)ncn(CCN4CCN(C(C)=O)CC4)c-3n2)c1 [Example 630, 3-[2-(4-Acetylpiperazin-1-yl)ethyl]-8-[(2,5-dimethoxyphenyl)thio]-3 H-purin-6-amine]	9000 nM
Nc1ncnc2c1nc(Sc1ccc3ncoc3c1)n2CCc1ccccc1 [Example 283, 8-(1,3-Benzoxazol-6-ylthio)-9-(2-phenylethyl)-9H-purin-6-amine]	12000 nM
CC(C)(C)CC(=O)N1CCCC(CCn2c(Sc3cc4c(cc3Br)OCO4)nc3c(N)ncnc32)C1 (stereo not drawn) [Example 454, 8-[(6-Bromo-1,3-benzodioxol-5-yl)thio]-9-{2-[1-(3,3-dimethylbutanoyl)piperidin-3-yl]ethyl}-9H-purin-6-amine]	305 nM
COc1ccc(OC)c(Sc2nc3c(N)ncnc3n2CCc2ccccc2C(F)(F)F)c1 [Example 183, 8-(2,5-Dimethoxy-phenylsulfanyl)-9-[2-(2-trifluoromethyl-phenyl)-ethyl]-9H-purin-6-ylamine]	1100 nM
Nc1ncn(CCc2ccccc2[N+](=O)[O-])c2nc(Sc3cc4c(cc3Br)OCO4)nc1-2 [Example 208, 8-(6-bromo-benzo[1,3]dioxol-5-ylsulfanyl)-3-[2-(2-nitro-phenyl)-ethyl]-3H-purin-6-ylamine]	> 25000 nM
COc1cc(Sc2nc3c(N)ncnc3n2CCc2ccccc2)c(OC)cc1Cl [Example 257, 8-[(4-Chloro-2,5-dimethoxyphenyl)thio]-9-(2-phenylethyl)-9H-purin-6-amine]	> 25000 nM
